Source: patent US20070207230A1, “EXTRACT OF NELUMBINIS SEMEN FOR THE TREATMENT OF DEPRESSION, MEDICINAL COMPOSITE AND HEALTH FOODS INCLUDING THE EXTRACT OF NELUMBINIS SEMEN” (PURIMED CO., LTD., priority 2004, published 2007)

Tests used:
rat hippocampus proteins = test: 2-DE analysis of hippocampus proteins of CMS rats; conditions: drug last four weeks, compared to control group
Description: Thirdly, an increase in marker proteins of antidepression, which play important roles in depression, was examined in the rat hippocampus by 2-DE, as follows. Rats were exposed to CMS for eight weeks and administered with drugs for the last four weeks of a test period. The hippocampus was excised from the rats, suspended with a sonicator and centrifuged, and the supernatants were recovered. Each sample was mixed with an IEF sample buffer and loaded onto an IEF gel. Proteins were separated according to isoelectric point by isoelectric focusing (IEF) in the first dimension and according to molecular weight by SDS-PAGE at 100-200 V for about 1-2 hours in the second dimension. The gel was stained by a Gel-Code Blue staining method and evaluated for elevated or newly emerged proteins by the antidepressive substances. The elevated or newly emerged proteins by the antidepressive substances were subjected to mass spectrometry.
Protein samples from the rat hippocampus were loaded onto an IEF gel. Proteins were separated according to isoelectric point by isoelectric focusing (IEF) in the first dimension and according to molecular weight by SDS-PAGE in the second dimension.

[1] = test system: male Wistar white rats exposed to CMS; test: Open field activity after CMS; type: in vivo, rat; conditions: 8-week CMS, drug for the last four weeks; average
Description: The open field consisted of a wooden box of 75×75×30 cm, the floor of which was divided by width and length lines into 15 cm squares. The open field was connected to a small box of 15×15×15 cm, which was used as a start box where experimental animals waited to enter the open field. A vertical sliding door was installed between the start box and the open field. White rats were placed in the start box, and, after 30 sec, the sliding door was open. The time to leave the start box toward the open field, which was expressed as start latency, was recorded. The start latency time means the time ranging from when the door was opened to when the rat tails completely exited the start box. […] The following behaviors were recorded for a total of 10 min: locomotion, rearing, grooming and defecation. Grooming behavior was recorded as the total time spent grooming in 10 min, and the remaining behaviors were all recorded as frequencies. Locomotor activity was recorded by counting the number of squares each white rat crossed on the floor divided into 25 15×15-cm squares using a computer tracking system. […] Grooming was recorded as the number of times each rat stroked its head or combed its fur with its forepaws during 10 min. After the 10-min observation, the white rats were removed from the open field, and defecation frequency was recorded by counting fecal boluses on the floor of the open field.

[2] = Body weight in the CMS model of depression; type: in vivo, rat; conditions: after 8-week CMS, drug for the last four weeks; versus CMS control group
Description: The rats were first trained to experience and drink a 1% sucrose solution for 48 hrs to be adapted to sweetness. After three days, the test groups were exposed to CMS (chronic mild stress) for a total of eight weeks. The CMS procedure applied to the test groups was based on the procedure originally designed by Willner et al. (1987). The rats were sequentially exposed to a variety of mild stressors, and a series of stressors was suitably divided over one week and applied to rats according to a predetermined time schedule. This procedure was repeated for eight weeks. […] The control rats were weekly exposed only to food and water deprivation for 20 hrs before sucrose intake was measured, and were normally bred in single cages for the rest of the time with sufficient water and food supply. […] Intake of a 1% sucrose solution was measured once every week in each of the four groups. […] Sucrose preference was expressed as a ratio of sucrose intake to total water and sucrose intake. […] In each group, sucrose intake was monitored from the beginning of CMS and for the CMS period of eight weeks. Body weight was measured before the 20-h water and food deprivation performed to measure sucrose intake every week.

[3] = test system: male Wistar white rats exposed to CMS; test: Sucrose intake in the CMS model of depression; type: in vivo, rat; conditions: 8-week CMS, drug for the last four weeks
Description: Postnatal 6-week-old male Wistar white rats weighing 180-200 g were divided into test groups and a control group. The rats were first trained to experience and drink a 1% sucrose solution for 48 hrs to be adapted to sweetness. After three days, the test groups were exposed to CMS (chronic mild stress) for a total of eight weeks. The CMS procedure applied to the test groups was based on the procedure originally designed by Willner et al. (1987). The rats were sequentially exposed to a variety of mild stressors, and a series of stressors was suitably divided over one week and applied to rats according to a predetermined time schedule. This procedure was repeated for eight weeks.
The stress procedure is given in Table 1, below, which describes a weekly CMS regime (20-h food and water deprivation, prey limitation after the food and water deprivation (45 g powdered prey sprinkled), exposure to empty water bottles after the food and water deprivation, all day illumination, 30° cage tilt; soiled cage (400 ml of water spilled on bedding), presentation of intermittent 85-dB white noise, presentation of flashes of light with a stroboscope, and tripled housing). The control rats were weekly exposed only to food and water deprivation for 20 hrs before sucrose intake was measured, and were normally bred in single cages for the rest of the time with sufficient water and food supply. […]

male rats exposed to CMS = test: Sexual (mating) behavior after CMS; type: in vivo, rat; conditions: drug last four weeks
Method: A decrease in sucrose consumption (the core symptom of depression) in rats was confirmed during the 8-week CMS period, and antidepressants were administered for the last four weeks. Then, mating behavior of rats was observed. This test was carried out a dark and quiet room using a 16×16-inch transparent acrylic box. Mature female rats were ovariectomized, and, to induce sexual receptivity, were administered with 20 μg of estradiol benzoate 48 hrs before the test and 1 mg of progesterone 5 hrs before the test. Male rats were singly housed in the same box for 30 min to adapt to a new environment. […] When female rats have sexual receptivity, that is, are estrous, they allow male rats to mount and show lordosis. Sexual behaviors of male rats were divided into mounting, intromission and ejaculation, and frequency of each behavior was recorded. The number of ejaculation (higher frequency generally means higher sexual activity) was recorded for 30 min. The time taken after ejaculation before resumption of sexual activity was called “post-ejaculation interval (PEI)”. A decrease in PEI generally means that male rats have increased sexual activity.

5-HT1A receptor = test: [3H]-8-OH-DPAT receptor binding autoradiography on brain sections of CMS rats; type: in vivo, rat
Method: Secondarily, antidepressive effects were evaluated by an increase or decrease in receptor binding of a serotonin 1A receptor agonist, [^3H]-8-OH-DPAT, in the rat prefrontal cortex, hippocampus and hypothalamus, which play important roles in depression, as follows. […] Whole brains were excised from the rats and rapidly frozen in dry ice. The rapidly frozen brains were stored at −70° C. until sectioned. The brains were cryo-sectioned into a size of 20 ? at −20° C. using a cryostat microtome (Leika), and each section was attached onto a gelatin-coated slide (Superfrost/Plus, Fisher Scientific). The slides were stored at −70° C. until use for observing changes in 5-HT1A receptor levels or activity. The changes in 5-HT1A receptor were examined using a radioisotope, [^3H]-8-OH-DPAT. The slides were taken out from a −70° C. freezer where the slides had been stored, and were pre-incubated in Tris-HCl buffer (170 mM Tris, 4 mM CaCl2, pH 7.6) for 30 min at room temperature. Then, the slides were incubated in Tris-HCl buffer containing 2 nM [^3H]-8-OH-DPAT (Amersham) for one hour. This incubation is total binding for observing the changes in the whole 5-HT1A receptor, and non-specific binding was observed using Tris-HCl buffer containing 1 μM 5-HT (Sigma). Then, the slides were washed with Tris-HCl buffer precooled at 4° C. six times and dried with chilled air. The slides were completely dried in a desiccator for 24 hours. The completely dried slides are exposed to Hyperfilm along with a standard scale bar for five weeks. The film exposed for five weeks was developed using a developer and a fixer. For quantitative analysis of density, the film was scanned using an image analysis program, ImageQuant (Molecular dynamics).
The changes in 5-HT1A receptor levels or activity were examined using a radioisotope, [^3H]-8-OH-DPAT. Reduced levels or inactivation of 5-HT1A receptor occur in the prefrontal cortex, hippocampus and hypothalamus of depressed patients. […] This normalization of 5-HT1A receptor by antidepressant administration is effective in treating depression and depression-associated neurodegeneration. Based on this fact, an increase in 5-HT1A receptor levels can be assessed by a receptor binding assay using a 5-HT1A receptor […]. When an increase in 5-HT1A receptor levels is observed upon Nelumbinis Semen administration in comparison with a control group exposed to CMS, this is considered an in vivo indication of an antidepressive effect at the molecular level. After drugs were administered for the last four weeks of the 8-week CMS period, an increase in 5-HT1A receptor levels, as an in vivo indication of antidepressive effect, was found in animals administered with the Nelumbinis Semen extract.

Sprague-Dawley male rats = test: Forced swim test, immobility time; type: in vivo, rat; conditions: 5 min forced swim the day after
Method: During forced swimming, the immobility time, when a rat ceases struggling and remains floating motionless in the water, was measured. The forced swimming itself induces depression in rats. Rats in water baths struggle first, and then stop struggling and remain floating motionless in the water. At the immobile state, rats become desperate and almost come to give up their lives. This time is considered to be the situation when depression is induced.
The antidepressive effects of drugs are assessed using this principle. Before being administered with drugs, experimental animals (rats) are dropped into water baths and forced to swim for 15 minutes to be trained to adapt to a suddenly changed environment without fear.
A comparative group was orally administered with a Hypericum perforatum extract. Another comparative group was intraperitoneally administered with fluoxetine. Each drug was administered for one day or six days.
Before the drug administration, the white rats were dropped into a cylindrical water bath (20 cm in diameter; 40 cm water depth) and forced to swim for 15 min. The day after the drug administration for one day or six days, the rats were forced to swim for 5 min, and during this forced swimming, immobility time was measured.

With `CNCCC(Oc1ccc(C(F)(F)F)cc1)c1ccccc1` (stereo not drawn) [fluoxetine] the “protein spots in 2-DE of hippocampus” value (rat hippocampus proteins) was “decrease in spots 1 and 4”, the “visit counts in open field” value [1] was 60 places in 10 min and the body weight [2] was “greater weight loss than the control group”. For the same molecule, the sucrose consumption [3] was “restored to levels similar to the normal group”, the “post-ejaculation interval (PEI)” value (male rats exposed to CMS; compared to control animals exposed to CMS) was “no significant difference” and the “sexual behavior (ejaculation frequency in 30 min)” value (male rats exposed to CMS; compared to normal animals) was “remarkably reduced”. For the same molecule, the 5-HT1A receptor levels (5-HT1A receptor; CA2 region of the rat hippocampus) was “decrease”, the “decrease in 5-HT1A receptor levels” value (5-HT1A receptor; CA3 region of the rat hippocampus) was 2% and the “decrease in 5-HT1A receptor levels” value (5-HT1A receptor; layer I-II of the rat cerebral frontal cortex, compared to the NS group, P<0.05) was 46%. For the same molecule, the 5-HT1A receptor levels (5-HT1A receptor; rat hippocampus and hypothalamus, compared to CMS control group) was “increase”, the “decrease in immobility time in comparison with a control group” value (Sprague-Dawley male rats; one-day drug administration) was 9.3% and the “decrease in immobility time in comparison with a control group” value (Sprague-Dawley male rats; six-day drug administration) was 22.1%.
